{"source": "patent US11197859B2", "about": "(AUTIFONY THERAPEUTICS LIMITED, priority 2010, dated 2021)", "key": {"MNTB neurons": {"test_system": "MNTB neurons", "experiment": "High-voltage activated potassium currents in MNTB neurons, in vitro", "format": "cell-based, mouse", "details": "10 microM in continuing presence of TEA (1 mM); effect on the TEA-induced reduction", "description": "Male CBA/Ca mice (aged 12-16 days) were used in these experiments (in accordance with the UK Animals Scientific Procedures Act, 1986). Brain slices containing the medial nucleus of the trapezoid body (MNTB) were prepared as described previously (Brew and Forsythe, 2005).\nChemicals and reagents were purchased from Sigma, (Poole, UK) unless otherwise noted. Reference Example RE1 was dissolved in DMSO and diluted in ACSF to the required concentration.\nRecordings from identified MNTB neurons were conducted as previously described (Brew and Forsythe, 2005). Slices was placed in a superfusion chamber on an inverted microscope stage and continuously perfused with gassed (95% O2-5% CO2) ACSF at a rate of 1 ml min-1 at room temperature. Whole-cell recordings were made from visually identified MNTB neurons using an […] amplifier (Molecular Devices, Union City, Calif., USA). Patch solution comprised (in mM) potassium gluconate (97.5), KCl (32.5), Hepes (40), EGTA (5), MgCl2 (1), Na2phosphocreatin (5), pH 7.2 with KOH. Pipettes had resistances of 3-5 MΩ and series resistances were 6-10 MΩ (compensated by 70%, 10 μs lag). Access resistance was frequently monitored and the recording discarded if increases were more than 2 MΩ. […]"}, "[1]": {"test_system": "parvalbumin-positive interneurons in the somatosensory cortex", "experiment": "Firing of parvalbumin-positive interneurons in somatosensory cortex slices, in vitro", "format": "cell-based, mouse", "details": "for frequency of action potential firing in response to step currents: vs TEA alone, p<0.05"}, "[2]": {"experiment": "Blood concentrations in satellite animals of the electroshock seizure study", "format": "in vivo", "details": "CD, whole blood, po, rat, 2 hours after dosing", "description": "Testing involved determining the threshold for tonic hindlimb extensor seizures using a Hugo Sachs Electronik stimulator which delivers a constant current of 0.3 second duration, 50 Hz, sinewave form, fully adjustable between 1 and 300 mA. Stimuli were delivered via corneal electrodes (Stean T O, Atkins A R, Heidbreder C A, Quinn L P, Trail B K, Upton N. (2005) Br J Pharmacol. 144(5):628-35). Seizure threshold was determined using the ‘up and down’ method of Kimball et al. (1957)(Kimball A W, Burnett W T Jr, Doherty D G. (1957) Radiat Res. 7(1):1-12). The first animal tested in each group was stimulated with a current that might be expected to be close to the threshold for induction of a seizure. If a tonic seizure was not induced, then the next animal in the group received a stimulus 5 mA higher. If a tonic seizure was induced, then the next animal received a stimulus 5 mA lower. This is repeated for all animals within the control (vehicle) group. In the case of groups treated with a test compound steps of 5 to 10 mA were used. At the end of the study, blood samples were taken for analysis of the drug concentrations in this compartment (n=4/group).\nAll doses were calculated as base. Sodium valproate was suspended in Methocell 1% (w/v) and dosed via the oral (p.o.) route at 5 mL/kg 1 hour before test. Reference Example RE1 was dissolved in DMSO and then suspended in Methocell 1% (w/v) to a final DMSO concentration of 5% (v/v). Reference Example RE1 was then dosed p.o. at 5 mL/kg 2 hours before test.\nBlood concentrations of Reference Example RE1 measured in satellite animals 2 hours after dosing were 5.3 and 9.1 μg/mL following the doses of 30 and 60 mg/kg p.o., respectively. These concentrations are equivalent to unbound concentrations in blood of 1.3 and 2.2 μM, respectively, and thus are consistent with concentrations of Reference Example RE1 that produce a significant increase in Kv3-mediated currents observed in the in vitro recombinant human Kv3 electrophysiology assay, described above."}, "Adult male CD rats": {"test_system": "Adult male CD rats", "experiment": "Assessment of physiological sleep in the rat (EEG/EMG telemetry)", "format": "in vivo", "details": "60 mg/kg oral at CT18, 5 hour period following dosing", "description": "Adult male CD rats (C. River, Italy) were implanted with telemetric probes and housed singly, under controlled condition (temperature 18-20° C.; relative humidity 45-50%; 12 hours light-dark cycle, lights on at 3 p.m., designated Circadian Time (CT) 0) with free access to food and water.\nReference Example RE1 was formulated in tween (0.1% v/v) and HPMC (0.5% v/v) and was administered orally at doses of 10, 30 and 60 mg/kg (vol. 2 ml/kg) at CT18 (6 hours before lights on). The electroencephalogram (EEG) and electromyogram (EMG) were recorded continuously, starting immediately after administration, using telemetric apparatus (DSI Dataquest® A.R.T. system). EEG and EMG recordings were analysed to evaluate sleep patterns using sleepSign® (Kissei Comtec Co.). Statistical analyses (1-way Anova followed by a Dunnett's test) was performed using Statistica-8 software."}}, "note": "Where two headings read alike, the source gives them in different places."}
{"smiles": "CC[C@H]1NC(=O)N(c2ccc(Oc3ccc(C)c(OC)c3)nc2)C1=O", "note": "[RE1, (5R)-5-ethyl-3-(6-{[4-methyl-3-(methyloxy)phenyl]oxy}-3-pyridinyl)-2,4-imidazolidinedione]", "values": [{"measurement": "amplitude of outward high voltage-activated potassium currents evoked by voltage steps to +40 mV", "setting": "MNTB neurons", "result": "reversed"}, {"measurement": "decrease of mean action potential half-width", "setting": "[1]; TEA (0.5 mM) + compound 1 μM vs TEA (0.5 mM) only, p<0.05, n=9", "result": 24, "unit": "%"}, {"measurement": "frequency of action potential firing in response to step currents", "setting": "[1]; TEA (0.5 mM) + compound 1 μM, n=9", "result": "significantly reversed"}, {"measurement": "decrease of mean action potential half-width", "setting": "[1]; TEA (0.5 mM) + compound 10 μM vs TEA (0.5 mM) only, p<0.01, n=5", "result": 36, "unit": "%"}, {"measurement": "frequency of action potential firing in response to step currents", "setting": "[1]; TEA (0.5 mM) + compound 10 μM, n=5", "result": "significantly reversed"}, {"measurement": "concentration at 2 h", "setting": "[2]; 30 mg/kg p.o., read-out: blood concentration", "result": 5300, "unit": "ng/mL"}, {"measurement": "concentration at 2 h", "setting": "[2]; 30 mg/kg p.o., read-out: unbound concentration in blood", "result": 1300, "unit": "nM"}, {"measurement": "concentration at 2 h", "setting": "[2]; 60 mg/kg p.o., read-out: blood concentration", "result": 9100, "unit": "ng/mL"}, {"measurement": "concentration at 2 h", "setting": "[2]; 60 mg/kg p.o., read-out: unbound concentration in blood", "result": 2200, "unit": "nM"}, {"measurement": "time spent in REM sleep", "setting": "Adult male CD rats", "result": "did not affect"}, {"measurement": "time spent in non-REM sleep", "setting": "Adult male CD rats; p<0.05, n=8", "result": "significantly increased"}, {"measurement": "total sleep time", "setting": "Adult male CD rats; p<0.05, n=8", "result": "significantly increased"}]}
